Data: patent US20060093596A1, “Genomic approach to identification of novel broad-spectrum antimicrobial peptides from bony fish” (priority 2002, published 2006)
Where no end group is shown, it is not given here.

How the values were obtained:
[1] = tested on: Pseudomonas aeruginosa Z61 (H188, supersusceptible strain); format: cell-based; conditions: lowest peptide concentration inhibiting growth by at least 50%; Mueller-Hinton broth
Protocol: (§1) Most non-fish bacterial strains as well as Candida albicans were grown at 37° C. in Mueller-Hinton Broth (MHB; Difco Laboratories, Detroit), while the fish bacteria were maintained at 16° C. in Tryptic Soy Broth (TSB; Difco, 5g/l NaCl). All strains were stored at −70° C. until they were thawed for use and sub-cultured daily. The following strains, Pseudomonas aeruginosa K799 (parent of Z61), Pseudomonas aeruginosa Z61 (antibiotic supersusceptible), Salmonella typhimurium 14028s (parent of MS7953s), Salmonella typhimurium MS7953s (defensin supersusceptible), as well as Staphylococcus epidermidis (human clinical isolates) and methicillin-resistant Staphylococcus aureus (MRSA; isolated by Dr. A. Chow, University of British Columbia) have been kindly donated by Prof R. E. W. Hancock, University of British Columbia.
(§2) The activities of the antimicrobial peptides were determined as minimal inhibitory concentrations (MICs) using the microtitre broth dilution method of Amsterdam (Amsterdam, 1996), as modified by Wu and Hancock (1999). Serial dilutions of the peptide were made in water in 96-well polypropylene (Costar, Coming Incorporated, Coming, New York) microtiter plates. Bacteria or C. albicans were grown overnight to mid-logarithmic phase as described above, and diluted to give a final inoculum size of 10^6 cfu/ml. A suspension of bacteria or yeast was added to each well of a 96 well plate and incubated overnight at the appropriate temperature. […] Three repeats of each MIC determination were performed.

[2] = tested on: Pseudomonas aeruginosa K799 (H187); format: cell-based; conditions: lowest peptide concentration inhibiting growth by at least 50%; Mueller-Hinton broth
Protocol: as §1, §2

[3] = tested on: Aeromonas salmonicida 99-1, A449
Protocol: (§3) Most non-fish bacterial strains as well as Candida albicans were grown at 37° C. in Mueller-Hinton Broth (MHB; Difco Laboratories, Detroit), while the fish bacteria were maintained at 16° C. in Tryptic Soy Broth (TSB; Difco, 5g/l NaCl).
(§4) Two field isolates of the salmonid pathogen Aeromonas salmonicida are from the IMB strain collection.
as §2

[4] = tested on: Aeromonas salmonicida 97-4
Protocol: as §3, §4, §2

[5] = tested on: methicillin-resistant Staphylococcus aureus (MRSA) C623, SAP017; conditions: methicillin-resistant C623, SAP017
Protocol: as §1, §2

[6] = tested on: Escherichia coli DC2 (C500, outer membrane-permeable mutant); format: cell-based; conditions: lowest peptide concentration inhibiting growth by at least 50%; Mueller-Hinton broth
Protocol: as §1, §2

[7] = tested on: Candida albicans C627, CALB105; conditions: C627, CALB105
Protocol: as §1, §2

[8] = tested on: Salmonella enterica s. Typhimurium MS4252S (C610, supersusceptible strain); format: cell-based; conditions: lowest peptide concentration inhibiting growth by at least 50%; Mueller-Hinton broth
Protocol: as §1, §2

[9] = tested on: Salmonella enterica s. Typhimurium 14028S (C587); format: cell-based; conditions: lowest peptide concentration inhibiting growth by at least 50%; Mueller-Hinton broth
Protocol: as §1, §2

[10] = tested on: Staphylococcus epidermidis C621 (clinical isolate)
Protocol: as §1, §2

[11] = tested on: Escherichia coli UB1005 (C498); format: cell-based; conditions: lowest peptide concentration inhibiting growth by at least 50%; Mueller-Hinton broth
Protocol: as §1, §2

[12] = tested on: Escherichia coli C786, CGSC4908; format: cell-based; conditions: lowest peptide concentration inhibiting growth by at least 50%; supplemented Mueller-Hinton broth
Protocol: All strains were stored at −70° C. until they were thawed for use and sub-cultured daily.
Escherichia coli strain CGSC 4908 (his-67, thyA43, pyr-37), auxotrophic for thymidine, uridine, and L-histidine (Cohen et al., 1963) was kindly supplied, free of charge, by the E.coli Genetic Stock Centre (Yale University, New Haven, Conn.). MHB supplemented with 5 mg/L thymidine, 10 mg/L uridine and 20 mg/L L-histidine (Sigma Chemical Co., St. Louis, Mo.), was used to grow E.coli CGSC 4908 unless otherwise specified.
The activities of the antimicrobial peptides were determined as minimal inhibitory concentrations (MICs) using the microtitre broth dilution method of Amsterdam (Amsterdam, 1996), as modified by Wu and Hancock (1999). Serial dilutions of the peptide were made in water in 96-well polypropylene (Costar, Coming Incorporated, Coming, New York) microtiter plates. Bacteria or C. albicans were grown overnight to mid-logarithmic phase as described above, and diluted to give a final inoculum size of 10^6 cfu/ml. A suspension of bacteria or yeast was added to each well of a 96 well plate and incubated overnight at the appropriate temperature. In the case of E. coli CGSC 4908, supplemented MHB was used. […] Three repeats of each MIC determination were performed.

[13] = tested on: bacterial pathogens and C. albicans; test: Spectrum of antimicrobial activity (MIC panel, overall); format: cell-based; conditions: summary of MIC results against bacteria and C. albicans
Protocol: Three repeats of each MIC determination were performed.
The minimal inhibitory concentrations of the chemically produced peptides against a wide range of baterial pathogens and C. albicans were determined and are shown in Table 9.

Substance: AGWGSIFKHIFKAGKFIHGAIQAHND-NH2 [NRC-14]
- Minimal inhibitory concentration, P. aeru Z61 [1]: 8 µg/mL
- Minimal inhibitory concentration, P. aeru K799 [2]: 32 µg/mL
- Minimal inhibitory concentration, A. sal 99-1 [3]: 32 µg/mL
- Minimal inhibitory concentration, A. sal 97-4 [4]: 16 µg/mL
- Minimal inhibitory concentration, MRSA C623 [5]: 16 µg/mL
- Minimal inhibitory concentration, E. coli DC2 [6]: 16 µg/mL
- Minimal inhibitory concentration, C. alb C627 [7]: >64 µg/mL
- Minimal inhibitory concentration, S. typh MS4252s [8]: 16 µg/mL
- Minimal inhibitory concentration, S. typh 14028s [9]: >64 µg/mL
- Minimal inhibitory concentration, S. epi C621 [10]: 16 µg/mL
- Minimal inhibitory concentration, E. coli UB1005 [11]: 16 µg/mL
- Minimal inhibitory concentration, E. coli C786 [12]: 16 µg/mL

Substance: FFRLLFHGVHHGGGYLNAA-NH2 [NRC-9]
- Minimal inhibitory concentration, P. aeru Z61 [1]: 64 µg/mL
- Minimal inhibitory concentration, P. aeru K799 [2]: >64 µg/mL
- Minimal inhibitory concentration, A. sal 99-1 [3]: >64 µg/mL
- Minimal inhibitory concentration, A. sal 97-4 [4]: >64 µg/mL
- Minimal inhibitory concentration, MRSA C623 [5]: >64 µg/mL
- Minimal inhibitory concentration, E. coli DC2 [6]: >64 µg/mL
- Minimal inhibitory concentration, C. alb C627 [7]: >64 µg/mL
- Minimal inhibitory concentration, S. typh MS4252s [8]: 64 µg/mL
- Minimal inhibitory concentration, S. typh 14028s [9]: >64 µg/mL
- Minimal inhibitory concentration, S. epi C621 [10]: >64 µg/mL
- Minimal inhibitory concentration, E. coli UB1005 [11]: >64 µg/mL
- Minimal inhibitory concentration, E. coli C786 [12]: 64 µg/mL
- antimicrobial activity, overall (in words) [13]: poor or no observed activities

Substance: FLGALIKGAIHGGRFIHGMIQNHH-NH2 [NRC-5]
- Minimal inhibitory concentration, P. aeru Z61 [1]: 32 µg/mL
- Minimal inhibitory concentration, P. aeru K799 [2]: >64 µg/mL
- Minimal inhibitory concentration, A. sal 99-1 [3]: >64 µg/mL
- Minimal inhibitory concentration, A. sal 97-4 [4]: >64 µg/mL
- Minimal inhibitory concentration, MRSA C623 [5]: 32 µg/mL
- Minimal inhibitory concentration, E. coli DC2 [6]: >64 µg/mL
- Minimal inhibitory concentration, C. alb C627 [7]: >64 µg/mL
- Minimal inhibitory concentration, S. typh MS4252s [8]: 64 µg/mL
- Minimal inhibitory concentration, S. typh 14028s [9]: >64 µg/mL
- Minimal inhibitory concentration, S. epi C621 [10]: 32 µg/mL
- Minimal inhibitory concentration, E. coli UB1005 [11]: 64 µg/mL
- Minimal inhibitory concentration, E. coli C786 [12]: 64 µg/mL

Substance: FLGLLFHGVHHVGKWIHGLIHGHH-NH2 [NRC-19]
- Minimal inhibitory concentration, P. aeru Z61 [1]: 8 µg/mL
- Minimal inhibitory concentration, P. aeru K799 [2]: 32 µg/mL
- Minimal inhibitory concentration, A. sal 99-1 [3]: 64 µg/mL
- Minimal inhibitory concentration, A. sal 97-4 [4]: >64 µg/mL
- Minimal inhibitory concentration, MRSA C623 [5]: 8 µg/mL
- Minimal inhibitory concentration, E. coli DC2 [6]: 32 µg/mL
- Minimal inhibitory concentration, C. alb C627 [7]: 64 µg/mL
- Minimal inhibitory concentration, S. typh MS4252s [8]: 16 µg/mL
- Minimal inhibitory concentration, S. typh 14028s [9]: 64 µg/mL
- Minimal inhibitory concentration, S. epi C621 [10]: 8 µg/mL
- Minimal inhibitory concentration, E. coli UB1005 [11]: 16 µg/mL
- Minimal inhibitory concentration, E. coli C786 [12]: 32 µg/mL

Substance: GFLGILFHGVHHGRKKALHMNSERRS [NRC-20]
- Minimal inhibitory concentration, A. sal 99-1 [3]: >64 µg/mL
- Minimal inhibitory concentration, A. sal 97-4 [4]: >64 µg/mL
- Minimal inhibitory concentration, MRSA C623 [5]: >64 µg/mL
- Minimal inhibitory concentration, C. alb C627 [7]: >64 µg/mL
- Minimal inhibitory concentration, S. epi C621 [10]: >64 µg/mL

Substance: GRRKRKWLRRIGKGVKIIGGAALDHL-NH2 [NRC-3]
- Minimal inhibitory concentration, P. aeru Z61 [1]: 1 µg/mL
- Minimal inhibitory concentration, P. aeru K799 [2]: 2 µg/mL
- Minimal inhibitory concentration, A. sal 99-1 [3]: 2 µg/mL
- Minimal inhibitory concentration, A. sal 97-4 [4]: 4 µg/mL
- Minimal inhibitory concentration, MRSA C623 [5]: 8 µg/mL
- Minimal inhibitory concentration, E. coli DC2 [6]: 2 µg/mL
- Minimal inhibitory concentration, C. alb C627 [7]: 4 µg/mL
- Minimal inhibitory concentration, S. typh MS4252s [8]: 2 µg/mL
- Minimal inhibitory concentration, S. typh 14028s [9]: 8 µg/mL
- Minimal inhibitory concentration, S. epi C621 [10]: 8 µg/mL
- Minimal inhibitory concentration, E. coli UB1005 [11]: 8 µg/mL
- Minimal inhibitory concentration, E. coli C786 [12]: 2 µg/mL

Substance: GWGSFFKKAAHVGKHVGKAALTHYL-NH2 [NRC-4]
- Minimal inhibitory concentration, P. aeru Z61 [1]: 4 µg/mL
- Minimal inhibitory concentration, P. aeru K799 [2]: 8 µg/mL
- Minimal inhibitory concentration, A. sal 99-1 [3]: 2 µg/mL
- Minimal inhibitory concentration, A. sal 97-4 [4]: 2 µg/mL
- Minimal inhibitory concentration, MRSA C623 [5]: 8 µg/mL
- Minimal inhibitory concentration, E. coli DC2 [6]: 2 µg/mL
- Minimal inhibitory concentration, C. alb C627 [7]: 8 µg/mL
- Minimal inhibitory concentration, S. typh MS4252s [8]: 2 µg/mL
- Minimal inhibitory concentration, S. typh 14028s [9]: 16 µg/mL
- Minimal inhibitory concentration, S. epi C621 [10]: 8 µg/mL
- Minimal inhibitory concentration, E. coli UB1005 [11]: 4 µg/mL
- Minimal inhibitory concentration, E. coli C786 [12]: 2 µg/mL

Substance: GWGSIFKHGRHAAKHIGHAAVNHYL-NH2 [NRC-6]
- Minimal inhibitory concentration, P. aeru Z61 [1]: 4 µg/mL
- Minimal inhibitory concentration, P. aeru K799 [2]: 16 µg/mL
- Minimal inhibitory concentration, A. sal 99-1 [3]: 4 µg/mL
- Minimal inhibitory concentration, A. sal 97-4 [4]: 4 µg/mL
- Minimal inhibitory concentration, MRSA C623 [5]: 32 µg/mL
- Minimal inhibitory concentration, E. coli DC2 [6]: 2 µg/mL
- Minimal inhibitory concentration, C. alb C627 [7]: 32 µg/mL
- Minimal inhibitory concentration, S. typh MS4252s [8]: 4 µg/mL
- Minimal inhibitory concentration, S. typh 14028s [9]: 64 µg/mL
- Minimal inhibitory concentration, S. epi C621 [10]: >64 µg/mL
- Minimal inhibitory concentration, E. coli UB1005 [11]: 4 µg/mL
- Minimal inhibitory concentration, E. coli C786 [12]: 4 µg/mL

Substance: GWKKWFTKGERLSQRHFA [NRC-18]
- Minimal inhibitory concentration, A. sal 99-1 [3]: >64 µg/mL
- Minimal inhibitory concentration, A. sal 97-4 [4]: 128 µg/mL
- Minimal inhibitory concentration, MRSA C623 [5]: >64 µg/mL
- Minimal inhibitory concentration, C. alb C627 [7]: >64 µg/mL
- Minimal inhibitory concentration, S. epi C621 [10]: >64 µg/mL

Substance: GWKKWLRKGAKHLGQAAIKGLAS [NRC-17]
- Minimal inhibitory concentration, A. sal 99-1 [3]: 2 µg/mL
- Minimal inhibitory concentration, A. sal 97-4 [4]: 1 µg/mL
- Minimal inhibitory concentration, MRSA C623 [5]: 16 µg/mL
- Minimal inhibitory concentration, C. alb C627 [7]: 8 µg/mL
- Minimal inhibitory concentration, S. epi C621 [10]: 32 µg/mL
- antimicrobial activity, overall (in words) [13]: broad spectrum of antimicrobial activity
